Consider 24 compounds from ChEMBL document CHEMBL5550215, “Discovery of Novel Imidazo[1,2-a]pyridine-Based HDAC6 Inhibitors as an Anticarcinogen with a Cardioprotective Effect” (J Med Chem, 2024).

The subject of experiment [1] is H9c2. The experiment in a line: Protection against H2O2 induced myocardial cell injury in rat H9c2 cells at 10 uM pretreated for 24 hrs followed by H2O2 exposure and measured after 1.5 hrs (reference value: 17.91 to 57.32%). Format: functional. The note with it: time 25.5 hrs.
The test system of experiment [2] is H9c2. The experiment can be described thus: Protection against H2O2 induced myocardial cell injury in rat H9c2 cells assessed as fold change at 10 uM pretreated for 24 hrs followed by H2O2 exposure and measured after 1.5 hrs relative to H2O2 alone. The note with it: time 25.5 hrs. Format: functional.

For `O=C(NO)c1ccc(NCc2cc(-c3ccccc3Cl)cn3ccnc23)cc1`, in the experiment on H9c2 [1], the Activity stood at 57.08%. Further, the “fold change (FC)” value in the experiment with H9c2 [2] came out at 1.6.

As for `COc1cc(-c2cc(C(=O)N3CCOCC3)c3nccn3c2)cc(OC)c1OC`, the Activity with H9c2 [1] came out at 34.81%. In addition, the “fold change (FC)” value in the experiment on H9c2 [2] is listed as 0.73.

On to `COc1cc(-c2cc(C(=O)NCc3ccccc3)c3nccn3c2)cc(OC)c1OC`, for which, in the experiment on H9c2 [1], the Activity is listed as 56.67%. For the same compound, the “fold change (FC)” value in the experiment on H9c2 [2] is on record as 0.99.

As to `CCc1ccc(-c2cc(CNc3ccc(C(=O)NO)cc3)c3nccn3c2)cc1`, the Activity in the experiment with H9c2 [1] is reported as 63.8%. Besides, the “fold change (FC)” value with H9c2 [2] was 1.73.

Take `Cc1ccc(-c2cc(CNc3ccc(C(=O)NNC(C)(C)C)cc3)c3nccn3c2)cc1`: the Activity in the experiment with H9c2 [1] is given as 65.75%. Further, the “fold change (FC)” value in the experiment with H9c2 [2] is recorded as 2.17.

Take `COc1cc(-c2cc(C(=O)NCCN3CCN(C(=O)OC(C)(C)C)CC3)c3ccccc3n2)cc(OC)c1OC`: in the experiment on H9c2 [1], the Activity came to 53.37%. Also, the “fold change (FC)” value in the experiment on H9c2 [2] came out at 1.19.

For `Cc1ccc(-c2cc(CNc3ccc(C(=O)Nc4ccccc4N)cc3)c3nccn3c2)cc1`, the Activity in the experiment on H9c2 [1] was determined as 21.76%. Also, in the experiment with H9c2 [2], the “fold change (FC)” value was found to be 1.21.

For `COc1ccc(-c2cc(CNc3ccc(C(=O)NO)cc3)c3nccn3c2)cc1`, the Activity in the experiment with H9c2 [1] is 57.47%. Further, the “fold change (FC)” value in the experiment on H9c2 [2] was found to be 1.56.

In the case of `O=C(NO)c1ccc(NCc2cc(-c3ccccc3F)cn3ccnc23)cc1`, in the experiment on H9c2 [1], the Activity was 57.23%. Besides, the “fold change (FC)” value in the experiment on H9c2 [2] is recorded as 1.55.

Consider `Cc1ccc(-c2cc(CNc3ccc(C(=O)NO)cc3C)c3nccn3c2)cc1`, for which the Activity with H9c2 [1] worked out at 53.88%. The “fold change (FC)” value in the experiment with H9c2 [2] was 1.51.

Consider `O=C(NO)c1ccc(CNc2cc(-c3ccccc3F)cn3ccnc23)cc1`, for which the Activity in the experiment with H9c2 [1] turned out to be 54.74%. In the experiment with H9c2 [2], the “fold change (FC)” value was 1.13.

Take `Cc1ccc(-c2cc(CNc3ccc(C(=O)NNC(=O)OC(C)(C)C)cc3)c3nccn3c2)cc1`: the Activity in the experiment on H9c2 [1] is 64.23%. Further, in the experiment on H9c2 [2], the “fold change (FC)” value turned out to be 2.12.

For the compound `COc1ccccc1CNC(=O)c1ccc(NCc2cc(-c3ccc(C)cc3)cn3ccnc23)cc1`, the Activity in the experiment on H9c2 [1] is 56.7%. Also, the “fold change (FC)” value in the experiment with H9c2 [2] is given as 1.88.

Regarding `Cc1ccc(-c2cc(CNc3ccc(C(=O)NO)cc3)c3nccn3c2)cc1`, the Activity with H9c2 [1] turned out to be 68.72%. Moreover, the “fold change (FC)” value in the experiment with H9c2 [2] was 1.93.

Take `COc1cc(-c2cc(C(=O)NCCN3CCOCC3)c3nccn3c2)cc(OC)c1OC`: the Activity in the experiment on H9c2 [1] amounted to 36.19%. Also, in the experiment with H9c2 [2], the “fold change (FC)” value worked out at 0.63.

For the compound `COc1cc(-c2cc(C(=O)NCCN3CCN(C(=O)OC(C)(C)C)CC3)c3nccn3c2)cc(OC)c1OC`, in the experiment with H9c2 [1], the Activity is recorded as 49.54%. Further, the “fold change (FC)” value in the experiment on H9c2 [2] is on record as 1.1.

For `O=C(NO)c1ccc(NCc2cc(-c3cccs3)cn3ccnc23)cc1`, the Activity with H9c2 [1] is reported as 68.84%. The “fold change (FC)” value with H9c2 [2] amounted to 1.87.

Regarding `Cc1cccc(-c2cc(NCc3ccc(C(=O)NO)cc3)c3nccn3c2)c1`, in the experiment with H9c2 [1], the Activity is on record as 49.08%. The “fold change (FC)” value in the experiment on H9c2 [2] is on record as 1.01.

Regarding `COc1ccc(-c2cc(CNc3ccc(C(=O)NO)cc3)c3nccn3c2)c(OC)c1`, in the experiment with H9c2 [1], the Activity stood at 56.04%. Also, in the experiment on H9c2 [2], the “fold change (FC)” value is reported as 1.52.

In the case of `Cc1ccc(-c2cc(CNc3ccc(C(=O)NO)cn3)c3nccn3c2)cc1`, the Activity in the experiment with H9c2 [1] was found to be 58.82%. In addition, the “fold change (FC)” value in the experiment on H9c2 [2] is reported as 1.27.

As for `Cc1ccc(-c2cc(CNc3ccc(C(=O)NNc4ccccc4F)cc3)c3nccn3c2)cc1`, the Activity in the experiment with H9c2 [1] was found to be 35.98%. For the same compound, in the experiment with H9c2 [2], the “fold change (FC)” value was found to be 1.19.

For the compound `Cc1ccccc1-c1cc(NCc2ccc(C(=O)NO)cc2)c2nccn2c1`, in the experiment on H9c2 [1], the Activity turned out to be 67.83%. Besides, the “fold change (FC)” value in the experiment on H9c2 [2] amounted to 1.4.

With `CC(C)c1ccc(-c2cc(CNc3ccc(C(=O)NO)cc3)c3nccn3c2)cc1`, the Activity in the experiment on H9c2 [1] was 54.12%. Also, the “fold change (FC)” value in the experiment on H9c2 [2] is 1.47.

As for `Cc1ccc(-c2cc(CNc3ccc(C(=O)NOC4CCCCO4)cc3)c3nccn3c2)cc1` (stereo not drawn), the Activity in the experiment with H9c2 [1] came out at 59.02%. Further, the “fold change (FC)” value with H9c2 [2] is 1.69.
